Source: patent US10208033B2, “β-carboline, dihydro-β-carboline and tetrahydro-β-carboline alkaloid derivatives and preparation methods same and use in aspects of preventing and treating plant viruses, fungicides and insecticides” (NANKAI UNIVERSITY, priority 2013, dated 2019)
Read-outs that look alike come from different tables or passages of the source.

Legend:
Fusarium graminearumt = assay: microbe, parasite or virus in culture; format: cell-based; conditions: 50 mg/kg
Bipolaria maydis = assay: organism not typed; format: cell-based; conditions: 50 mg/kg
Sclerotinia scleotiorum = assay: Fungicidal (bactericidal) activity in vitro, PDA colony diameter; format: cell-based; conditions: 50 mg/kg
Fusarium fujikuroi = assay: as above; format: cell-based; conditions: 50 mg/kg
mosquito larvae = assay: whole plant or invertebrate; conditions: 24 h
Summary of the method: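 Early fourth-instar Culex pipiens pallens larvae from an indoor colony, 10 per beaker, exposed to test compound at 5 ppm in water, diluted from a 1000 ppm acetone mother solution. Blank: water containing 0.5 mL test solvent.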

Cercospora arachidicola = assay: Fungicidal (bactericidal) activity in vitro, PDA colony diameter; format: cell-based; conditions: 50 mg/kg
Alternaria solani = assay: as above; format: cell-based; conditions: 50 mg/kg
Botrytis cinerea = assay: as above; format: cell-based; conditions: 50 mg/kg
[1] = system: tobacco mosaic virus (TMV); assay: Anti-TMV in vivo protective effect; parameters: species or system tobacco mosaic virus (host Nicotiana tabacum L.cv.Xanthi NN)
[2] = system: tobacco mosaic virus (TMV); assay: Anti-TMV in vivo inactivation; parameters: species or system tobacco mosaic virus (host Nicotiana tabacum L.cv.Xanthi NN)
Rhizoctonia solani = assay: Fungicidal (bactericidal) activity in vitro, PDA colony diameter; format: cell-based; conditions: 50 mg/kg
potato late blight = assay: microbe, parasite or virus in culture; format: cell-based
[3] = system: tobacco mosaic virus (TMV); assay: Anti-TMV in vivo therapeutic effect; parameters: species or system tobacco mosaic virus (host Nicotiana tabacum L.cv.Xanthi NN)
armyworms = format: in vivo; conditions: concentration 600 mg/kg
[4] = system: Colletotrichum orbiculare; assay: Fungicidal (bactericidal) activity in vitro, PDA colony diameter; format: cell-based; conditions: 50 mg/kg
Macrophoma kawatsukai = assay: as above; format: cell-based; conditions: 50 mg/kg
Phytophthora capsici = assay: as above; format: cell-based; conditions: 50 mg/kg
cucumber fusarium wilt = assay: as above; format: cell-based; conditions: 50 mg/kg
cotton bollworms = assay: whole plant or invertebrate; conditions: concentration 600 mg/kg
Procedure: Experimental method of cotton bollworms: feed and drug mixing method: measure 3 mL of prepared solution and add it to about 27 g of newly prepared feed, thereby obtaining needed concentration through dilution by 10 times.

Rhizoctonia cereali = assay: Fungicidal (bactericidal) activity in vitro, PDA colony diameter; format: cell-based
[5] = system: tobacco mosaic virus (TMV); assay: Anti-TMV in vitro effect (half-leaf soaking); format: cell-based, tobacco mosaic virus (host Nicotiana tabacum L.cv.Xanthi NN)
corn borers = conditions: concentration 600 mg/kg

SMILES | Bactericidal activity (%) Fusarium graminearumt (Fusarium graminearumt) [%] | Bactericidal activity (%) Bipolaria maydis (Bipolaria maydis) [%] | Bactericidal activity (%) Sclerotinia scleotiorum (Sclerotinia scleotiorum) [%] | Bactericidal activity (%) Fusarium fujikuroi (Fusarium fujikuroi) [%] | Mosquito larvae Mortality (%) (mosquito larvae; concentration 10 mg/kg) | Bactericidal activity (%) Cercospora arachidicola (Cercospora arachidicola) [%] | Bactericidal activity (%) Alternaria solani (Alternaria solani) [%] | Bactericidal activity (%) Botrytis cinerea (Botrytis cinerea) [%] | Relative inhibition rate (%) In vivo protection ([1]; treatment dose 100 μg/mL) [%] | Relative inhibition rate (%) In vivo protection ([1]; treatment dose 500 μg/mL) [%] | Relative inhibition rate (%) In vivo inactivation ([2]; treatment dose 100 μg/mL) [%] | Relative inhibition rate (%) In vivo inactivation ([2]; treatment dose 500 μg/mL) [%] | Bactericidal activity (%) Rhizoctonia solani (Rhizoctonia solani) [%] | Bactericidal activity (%) potato late blight (potato late blight) [%] | Relative inhibition rate (%) In vivo therapy ([3]; treatment dose 100 μg/mL) [%] | Relative inhibition rate (%) In vivo therapy ([3]; treatment dose 500 μg/mL) [%] | Armyworm Mortality (%) (armyworms) | Bactericidal activity (%) Colletotrichum orbiculare [4] [%] | Bactericidal activity (%) Macrophoma kawatsukai (Macrophoma kawatsukai) [%] | Bactericidal activity (%) Phytophthora capsici (Phytophthora capsici) [%] | also measured
C[C@@H]1N[C@H](C(=O)NCCO)Cc2c1[nH]c1ccccc21 [Ib-18, (1S, 3S)—N-(2-ethoxyl)-1-methyl-2,3,4,9-tetrahydro-pyridino [3,4-b] indol-3-formamide] | 28.6 | 26.3 | 68.0 | 35.7 | 10 | 21.4 | 27.8 | 27.3 | 12.1 | 41 | 10 | 41.5 | 35.7 | 5.0 | 18.6 | 40 | 5 | 23.8 | 70.6 | 36.4 | Bactericidal activity (%) Cucumber fusarium wilt (cucumber fusarium wilt): 23.8%; Cotton bollworm Mortality (%) (cotton bollworms): 5%; Bactericidal activity (%) Rhizoctonia cereali (Rhizoctonia cereali; 50 mg/kg): 53.1%; Relative inhibition rate (%) In vitro activity ([5]; treatment dose 100 μg/mL): 5.4%; Relative inhibition rate (%) In vitro activity ([5]; treatment dose 500 μg/mL): 37.6%; Corn borer Mortality (%) (corn borers): 5%
C[C@@H]1N[C@H](C(=O)NN=Cc2ccc(N(C)C)cc2)Cc2c1[nH]c1ccccc21 [Ic-3, (1S, 3S)—N′-(4-dimethylaminobenzylidene)-1-methyl-2,3,4,9-tetrahydropyridino [3,4-b] indol-3-formylhydrazine] | 31.0 | 64.0 | 41.2 | 35.7 | 55 | 76.5 | 65.0 | 72.7 | 18.9 | 62.4 | 25 | 64.5 | 63.2 | 72.0 | 23.1 | 60.4 | 25 | 48.1 | 97.2 | 78.9 | Bactericidal activity (%) Cucumber fusarium wilt (cucumber fusarium wilt): 38.5%; Cotton bollworm Mortality (%) (cotton bollworms): 40%; Bactericidal activity (%) Rhizoctonia cereali (Rhizoctonia cereali; 50 mg/kg): 96.1%; Relative inhibition rate (%) In vitro activity ([5]; treatment dose 100 μg/mL): 20.4%; Relative inhibition rate (%) In vitro activity ([5]; treatment dose 500 μg/mL): 56.8%; Corn borer Mortality (%) (corn borers): 30%
C[C@@H]1N[C@H](C(=O)NN=Cc2ccc([N+](=O)[O-])cc2)Cc2c1[nH]c1ccccc21 [Ic-4, (1S, 3S)—N′-(4-nitrobenzylidene)-1-methyl-2,3,4,9-tetrahydropyridino [3,4-b] indol-3-formylhydrazine] | 58.6 | 60.0 | 88.2 | 42.9 | 65 | 58.8 | 45.0 | 72.7 | 21.4 | 61.5 | 27.4 | 58.3 | 59.2 | 52.0 | 20.8 | 57.1 | 30 | 48.1 | 72.2 | 78.9 | Bactericidal activity (%) Cucumber fusarium wilt (cucumber fusarium wilt): 38.5%; Cotton bollworm Mortality (%) (cotton bollworms): 35%; Bactericidal activity (%) Rhizoctonia cereali (Rhizoctonia cereali; 50 mg/kg): 88.2%; Relative inhibition rate (%) In vitro activity ([5]; treatment dose 100 μg/mL): 19.6%; Relative inhibition rate (%) In vitro activity ([5]; treatment dose 500 μg/mL): 62.8%; Corn borer Mortality (%) (corn borers): 35%
C[C@@H]1N[C@H](C(=O)NN=Cc2ccc(Cl)cc2Cl)Cc2c1[nH]c1ccccc21 [Ic-6, (1S, 3S)—N′-(2,4-dichlorobenzylidene)-1-methyl-2,3,4,9-tetrahydropyridino [3,4-b] indol-3-formylhydrazine] | 53.8 | 56.0 | 46.2 | 47.1 | 100 | 45.5 | 42.9 | 52.8 | 18.6 | 57.2 | 28.5 | 66.7 | 45.8 | 39.1 | 31.5 | 60.4 | 45 | 60.0 | 48.5 | 60.6 | Mosquito larvae Mortality (%) (mosquito larvae; concentration 5 mg/kg): 20%; Bactericidal activity (%) Cucumber fusarium wilt (cucumber fusarium wilt): 27.3%; Cotton bollworm Mortality (%) (cotton bollworms): 35%; Bactericidal activity (%) Rhizoctonia cereali (Rhizoctonia cereali): 56.8%; Relative inhibition rate (%) In vitro activity ([5]; treatment dose 100 μg/mL): 20.1%; Relative inhibition rate (%) In vitro activity ([5]; treatment dose 500 μg/mL): 56.8%; Corn borer Mortality (%) (corn borers): 40%
COc1ccc(C=NNC(=O)[C@@H]2Cc3c([nH]c4ccccc34)[C@H](C)N2)cc1 [Ic-8, (1S, 3S)—N′-(4-methoxybenzylidene)-1-methyl-2,3,4,9-tetrahydropyridino [3,4-b] indol-3-formylhydrazine] | 65.5 | 68.0 | 94.1 | 64.3 | 35 | 64.7 | 30.0 | 59.1 | 31.8 | 70 | 30.4 | 69.1 | 59.2 | 52.0 | 34.8 | 66.4 | 20 | 55.6 | 72.2 | 73.7 | Bactericidal activity (%) Cucumber fusarium wilt (cucumber fusarium wilt): 23.1%; Cotton bollworm Mortality (%) (cotton bollworms): 35%; Bactericidal activity (%) Rhizoctonia cereali (Rhizoctonia cereali; 50 mg/kg): 84.3%; Relative inhibition rate (%) In vitro activity ([5]; treatment dose 100 μg/mL): 28.7%; Relative inhibition rate (%) In vitro activity ([5]; treatment dose 500 μg/mL): 62.5%; Corn borer Mortality (%) (corn borers): 15%
COc1cccc(C=NNC(=O)[C@@H]2Cc3c([nH]c4ccccc34)[C@H](C)N2)c1 [Ic-9, (1S, 3S)—N′-(3-methoxybenzylidene)-1-methyl-2,3,4,9-tetrahydropyridino [3,4-b] indol-3-formylhydrazine] | 41.4 | 48.0 | 88.2 | 57.1 | 75 | 58.8 | 65.0 | 68.2 | 20.6 | 54.7 | 22.1 | 59.2 | 68.4 | 40.0 | 16.5 | 54 | 35 | 40.7 | 69.4 | 81.6 | Bactericidal activity (%) Cucumber fusarium wilt (cucumber fusarium wilt): 34.6%; Cotton bollworm Mortality (%) (cotton bollworms): 30%; Bactericidal activity (%) Rhizoctonia cereali (Rhizoctonia cereali; 50 mg/kg): 92.2%; Relative inhibition rate (%) In vitro activity ([5]; treatment dose 100 μg/mL): 13.2%; Relative inhibition rate (%) In vitro activity ([5]; treatment dose 500 μg/mL): 53.2%; Corn borer Mortality (%) (corn borers): 40%
